The values below come from US20240228506A1, “RIPK1 INHIBITORS AND METHODS OF USE” (Merck Sharp & Dohme LLC, priority 2021, published 2024).

The target of this test is T1, GST-RIPK1 (recombinant GST-RIPK1 kinase domain (residues 1-327)) (Homo sapiens, UniProt Q13546).
T1 construct: recombinant GST-RIPK1 kinase domain (residues 1-327) enzyme; made in house; host or cells: baculovirus-transfected Sf21 insect cells
T1 sequence (Q13546 1-327): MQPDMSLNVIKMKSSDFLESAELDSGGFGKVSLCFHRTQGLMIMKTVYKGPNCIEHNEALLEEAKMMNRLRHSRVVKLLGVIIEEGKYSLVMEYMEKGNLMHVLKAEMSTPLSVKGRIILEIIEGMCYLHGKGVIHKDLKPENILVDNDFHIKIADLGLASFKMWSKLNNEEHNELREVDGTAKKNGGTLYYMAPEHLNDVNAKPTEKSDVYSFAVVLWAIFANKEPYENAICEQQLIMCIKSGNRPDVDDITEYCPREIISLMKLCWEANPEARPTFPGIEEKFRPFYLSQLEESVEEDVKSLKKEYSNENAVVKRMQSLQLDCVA
As to the kind of experiment: RIPK1-ADP-Glo enzymatic assay. The class given is biochemical. As to conditions: 25 nM GST-RIPK1, 300 μM ATP, 3 μM dephosphorylated-MBP; 30 minutes pre-incubation, 150 minutes reaction; ten-point titration. The gist of the method:
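Ten-point 1:3 titrations from 100000 nM, 1% DMSO, were preincubated 30 min with 25 nM GST-RIPK1 (1-327) before starting with 300 μM ATP plus 3 μM dephosphorylated MBP; 150 min reaction. ADP-Glo luminescence measured ATP-to-ADP conversion; EC50 by four-parameter sigmoidal regression.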
(ADP-Glo turns the ADP formed in a reaction into a luminescent signal.)

For `CC(C)(C)C(=O)N1C[C@@H]2C[C@H]1c1cncc(C#Cc3ccccc3)c1O2` [Compound 2-20, 2,2-Dimethyl-1-((2S,5S)-9-(phenylethynyl)-2,3-dihydro-2,5-methanopyrido[3,4-f][1,4]oxazepin-4(5H)-yl)propan-1-one], the IC50 (in general, the concentration at which inhibition is half-maximal) was found to be 72 nM.
Under `CCC(C)(C#N)C(=O)N1C[C@@H]2C[C@H]1c1cncc(C#N)c1O2` (single isomer, unassigned) [Compound 1-113, (2S,5S)-4-(2-(R or S)-cyano-2-methylbutanoyl)-2,3,4,5-tetrahydro-2,5-methanopyrido[3,4-f][1,4]oxazepine-9-carbonitrile] stands 156 nM.
Take `Cc1nnc(C#Cc2cncc3c2O[C@H]2C[C@@H]3N(C(=O)C(C)(C)C(F)F)C2)o1` [Compound 2-71, 3,3-Difluoro-2,2-dimethyl-1-((2S,5S)-9-((5-methyl-1,3,4-oxadiazol-2-yl)ethynyl)-2,3-dihydro-2,5-methanopyrido[3,4-f][1,4]oxazepin-4(5H)-yl)propan-1-one]: the IC50 worked out at 89 nM.
Under `O=C(N1C[C@@H]2C[C@H]1c1cncc(C#Cc3cccnn3)c1O2)C12CCC(C(F)(F)F)(CC1)C2` [Compound 2-51, ((2S,5S)-9-(pyridazin-3-ylethynyl)-2,3-dihydro-2,5-methanopyrido[3,4-f][1,4]oxazepin-4(5H)-yl)(4-(trifluoromethyl)bicyclo [2.2.1]heptan-1-yl)methanone] stands 17 nM.
Under `CCC1(C(=O)N2C[C@@H]3C[C@H]2c2cncc(C#N)c2O3)CC1` [Compound 1-74, (2S,5S)-4-(1-ethylcyclopropane-1-carbonyl)-2,3,4,5-tetrahydro-2,5-methanopyrido[3,4-f][1,4]oxazepine-9-carbonitrile] stands 347 nM.
On to `N#Cc1cncc2c1O[C@H]1C[C@@H]2N(C(=O)C23CCCC2C3)C1` (single isomer, unassigned) [Compound 1-33, (2S,5S)-4-[(1R,5R or 1S,5S)-bicyclo[3.1.0]hexane-1-carbonyl]-2,3,4,5-tetrahydro-2,5-methanopyrido[3,4-f][1,4]oxazepine-9-carbonitrile], for which the 50% inhibitory concentration (IC50) is 94 nM.
In the case of `O=C(N1C[C@@H]2C[C@H]1c1cncc(C#CCO)c1O2)C12CCC(C(F)(F)F)(CC1)C2` [Compound 2-57, ((2S,5S)-9-(3-hydroxyprop-1-yn-1-yl)-2,3-dihydro-2,5-methanopyrido[3,4-f][1,4]oxazepin-4(5H)-yl)(4-(trifluoromethyl)bicyclo[2.2.1]heptan-1-yl)methanone], the IC50 worked out at 78 nM.
With `CC(F)(F)C1(C(=O)N2C[C@@H]3C[C@H]2c2cncc(Cl)c2O3)CCC1` [Compound 2-11, ((2S,5S)-9-chloro-2,3-dihydro-2,5-methanopyrido[3,4-f][1,4]oxazepin-4(5H)-yl)(1-(1,1-difluoroethyl)cyclobutyl) methanone], the IC50 was determined as 57 nM.
As to `Cc1ncc2c(c1C#N)O[C@H]1C[C@@H]2N(C(=O)C(C)(C)C(F)F)C1` [Compound 1-18, (2S,5S)-4-(3,3-difluoro-2,2-dimethylpropanoyl)-8-methyl-2,3,4,5-tetrahydro-2,5-methanopyrido[3,4-f][1,4]oxazepine-9-carbonitrile], the IC50 was found to be 84 nM.
With `CCC(C#N)(CC)C(=O)N1C[C@@H]2C[C@H]1c1cncc(C#N)c1O2` [Compound 1-21, (2S,5S)-4-(2-cyano-2-ethylbutanoyl)-2,3,4,5-tetrahydro-2,5-methanopyrido[3,4-f][1,4]oxazepine-9-carbonitrile] the figure was 366 nM; with `N#Cc1cncc2c1OC[C@H]1CC[C@@H]2N1C(=O)C12CCC(F)(CC1)C2` [Compound 5-1, (3R,6S)-11-(4-Fluorobicyclo[2.2.1]heptane-1-carbonyl)-3,4,5,6-tetrahydro-2H-3,6-epiminooxocino[3,2-c]pyridine-10-carbonitrile], 95 nM.
With `CC1(CC#Cc2cncc3c2O[C@H]2C[C@@H]3N(C(=O)C34CCC(F)(CC3)C4)C2)COC1` [Compound 2-116, (4-fluorobicyclo[2.2.1]heptan-1-yl)((2S,5S)-9-(3-(3-methyloxetan-3-yl)prop-1-yn-1-yl)-2,3-dihydro-2,5-methanopyrido[3,4-f][1,4]oxazepin-4(5H)-yl)methanone] the figure was 376 nM.
